Assay results: PubChem BioAssay AID256 (DTP/NCI, 2004)
Several values for one entry are separate records, joined by “and”; a condition that tells them apart may be missing. Identical values can stand only once. Inconclusive results and toxic doses are left out. How the source made its calls: active means survival T/C of 150% or more; inactive means T/C below 125% in these data.

Test system: CD2F1 mice, L1210 leukemia ip, survival T/C
Test: NCI In Vivo Anticancer Drug Screen. Data for tumor model L1210 Leukemia (intraperitoneal) in CD2F1 (CDF1) mice
Conditions: endpoint: mean survival time, higher = longer survival
Outline: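 Each value reflects a quotient of treated over vehicle control outcomes in mice with a transplanted tumor.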

[1] = dose: 100.0 mg/kg/injection, schedule: Q01DX001 (ip), vehicle: saline with Tween-80
[2] = dose: 200.0 mg/kg/injection, schedule: Q01DX001 (ip), vehicle: saline with Tween-80
[3] = dose: 100.0 mg/kg/injection, schedule: Q01DX009 (ip), vehicle: saline
[4] = dose: 200.0 mg/kg/injection, schedule: Q01DX009 (ip), vehicle: saline
[5] = dose: 400.0 mg/kg/injection, schedule: Q01DX009 (ip), vehicle: saline
[6] = dose: 50.0 mg/kg/injection, schedule: Q01DX009 (ip), vehicle: saline with Tween-80
[7] = dose: 50.0 mg/kg/injection, schedule: Q04DX003 (ip), vehicle: saline with Tween-80
[8] = dose: 100.0 mg/kg/injection, schedule: Q01DX009 (ip), vehicle: saline with Tween-80
[9] = dose: 100.0 mg/kg/injection, schedule: Q04DX003 (ip), vehicle: saline with Tween-80
[10] = dose: 200.0 mg/kg/injection, schedule: Q01DX009 (ip), vehicle: saline with Tween-80
[11] = dose: 400.0 mg/kg/injection, schedule: Q01DX009 (ip), vehicle: saline with Tween-80
[12] = dose: 400.0 mg/kg/injection, schedule: Q04DX003 (ip), vehicle: saline with Tween-80

Measured: T/C

O=CCCNP(=O)(OCc1ccccc1)N(CCCl)CCCl (centres undefined)
inactive: dose: 13.13 mg/kg/injection, schedule: Q01DX001 (ip), vehicle: DMSO 103 % of control | dose: 26.25 mg/kg/injection, schedule: Q01DX001 (ip), vehicle: DMSO 98 % of control | dose: 52.5 mg/kg/injection, schedule: Q01DX001 (ip), vehicle: DMSO 103 % of control | dose: 105.0 mg/kg/injection, schedule: Q01DX001 (ip), vehicle: DMSO 104 % of control | dose: 210.0 mg/kg/injection, schedule: Q01DX001 (ip), vehicle: DMSO 101 % of control | dose: 420.0 mg/kg/injection, schedule: Q01DX001 (ip), vehicle: DMSO 101 % of control | dose: 840.0 mg/kg/injection, schedule: Q01DX001 (ip), vehicle: DMSO 101 % of control

O=S1(=O)CCS(=O)(=O)C1
inactive: dose: 50.0 mg/kg/injection, schedule: Q01DX001 (ip), vehicle: saline with Tween-80 104 % of control | [1] 98 % of control | [2] 95 % of control

CSc1nc(N)c2ncn(C3C=CC(O)CO3)c2n1 (centres undefined)
inactive: dose: 50.0 mg/kg/injection, schedule: Q01DX001 (ip), vehicle: saline 106 % of control | dose: 100.0 mg/kg/injection, schedule: Q01DX001 (ip), vehicle: saline 106 % of control | dose: 200.0 mg/kg/injection, schedule: Q01DX001 (ip), vehicle: saline 100 % of control | dose: 400.0 mg/kg/injection, schedule: Q01DX001 (ip), vehicle: saline 116 % of control

CN(C(N)=O)C1CCCC1
inactive: [3] 102 % of control | [4] 105 % of control | [5] 107 % of control

O=C(NCCc1c[nH]c2ccccc12)c1cccnc1
inactive: dose: 100.0 mg/kg/injection, schedule: Q04DX003 (ip), vehicle: acetone 98 % of control | dose: 200.0 mg/kg/injection, schedule: Q04DX003 (ip), vehicle: acetone 96 % of control | dose: 400.0 mg/kg/injection, schedule: Q04DX003 (ip), vehicle: acetone 98 % of control

O=C(N/N=C/c1ccc(O)cc1O)c1cccnc1
inactive: dose: 6.25 mg/kg/injection, schedule: Q01DX009 (ip), vehicle: olive oil, sesame oil, peanut oil 102 % of control | dose: 12.5 mg/kg/injection, schedule: Q01DX009 (ip), vehicle: olive oil, sesame oil, peanut oil 98 % of control | dose: 25.0 mg/kg/injection, schedule: Q01DX009 (ip), vehicle: olive oil, sesame oil, peanut oil 98 % of control | dose: 50.0 mg/kg/injection, schedule: Q01DX009 (ip), vehicle: olive oil, sesame oil, peanut oil 98 % of control | dose: 100.0 mg/kg/injection, schedule: Q01DX009 (ip), vehicle: olive oil, sesame oil, peanut oil 100 % of control

CC1=C(N)C(=O)c2c(COC(N)=O)c3n(c2C1=O)C[C@H]1N[C@@H]31
inactive: dose: 3.0 mg/kg/injection, schedule: Q01DX001 (ip), vehicle: distilled water + Tween-80 105 % of control | dose: 6.0 mg/kg/injection, schedule: Q01DX001 (ip), vehicle: distilled water + Tween-80 100 % of control | dose: 12.0 mg/kg/injection, schedule: Q01DX001 (ip), vehicle: distilled water + Tween-80 100 % of control | dose: 24.0 mg/kg/injection, schedule: Q01DX001 (ip), vehicle: distilled water + Tween-80 100 % of control | dose: 48.0 mg/kg/injection, schedule: Q01DX001 (ip), vehicle: distilled water + Tween-80 94 % of control

Cc1ccc(S(=O)(=O)OC(C#N)c2ccccc2)cc1 (centres undefined)
inactive: [6] 100 % of control | [7] 102 % of control | [1] 98 % of control | [8] 101 % of control | [9] 101 % of control | [2] 105 % of control | dose: 200.0 mg/kg/injection, schedule: Q04DX003 (ip), vehicle: saline with Tween-80 107 % of control

CCOC(=O)NC(CCl)C(=O)OC (centres undefined)
inactive: [8] 104 % of control | [10] 98 % of control | [11] 98 % of control

COc1ccc(NC(=O)Nc2cccc([N+](=O)[O-])c2OC)cc1
inactive: dose: 200.0 mg/kg/injection, schedule: Q04DX002 (ip), vehicle: saline with Tween-80 86 % of control | dose: 400.0 mg/kg/injection, schedule: Q04DX002 (ip), vehicle: saline with Tween-80 96 % of control

O=C(O)c1ccccc1C(=O)Nc1ccc([N+](=O)[O-])cc1
inactive: [9] 98 % of control | [12] 91 % of control

O=C(N/N=C/c1ccc(Cl)cc1Cl)c1ccccc1
inactive: dose: 50.0 mg/kg/injection, schedule: Q01DX009 (ip), vehicle: Klucel (hydroxypropylcellulose) (HPC) 110 % of control | dose: 100.0 mg/kg/injection, schedule: Q01DX009 (ip), vehicle: Klucel (hydroxypropylcellulose) (HPC) 103 % of control | dose: 200.0 mg/kg/injection, schedule: Q01DX009 (ip), vehicle: Klucel (hydroxypropylcellulose) (HPC) 86 % of control

NC(CC(=O)NO)C(=O)O (centres undefined)
inactive: dose: 12.5 mg/kg/injection, schedule: Q01DX009 (ip), vehicle: saline 95 % of control | dose: 25.0 mg/kg/injection, schedule: Q01DX009 (ip), vehicle: saline 101 % of control | dose: 50.0 mg/kg/injection, schedule: Q01DX009 (ip), vehicle: saline 101 % of control | [3] 95 % of control | [4] 111 % of control and 95 % of control | [5] 103 % of control

Cc1cn(C2CC(O)C(CS[As](C)C)O2)c(=O)[nH]c1=O (centres undefined)
inactive: dose: 12.5 mg/kg/injection, schedule: Q01DX005 (ip), vehicle: distilled water + Tween-80 98 % of control | dose: 25.0 mg/kg/injection, schedule: Q01DX005 (ip), vehicle: distilled water + Tween-80 102 % of control | dose: 50.0 mg/kg/injection, schedule: Q01DX005 (ip), vehicle: distilled water + Tween-80 102 % of control | dose: 100.0 mg/kg/injection, schedule: Q01DX005 (ip), vehicle: distilled water + Tween-80 93 % of control

CN(C)c1ccc(N=C(C#N)C(=O)c2ccccc2)cc1
inactive: [8] 95 % of control | [10] 97 % of control | [11] 97 % of control

CCOC(=O)c1c(C)cc(C)[nH]c1=O
inactive: dose: 100.0 mg/kg/injection, schedule: Q04DX003 (ip), vehicle: saline + alcohol 102 % of control | dose: 200.0 mg/kg/injection, schedule: Q04DX003 (ip), vehicle: saline + alcohol 107 % of control | dose: 400.0 mg/kg/injection, schedule: Q04DX003 (ip), vehicle: saline + alcohol 113 % of control

O=S(=O)(/C=C\c1ccccc1)/C=C/c1ccccc1
inactive: [9] 91 % of control | [12] 86 % of control

CC1(C)OC1(C)C
inactive: dose: 100.0 mg/kg/injection, schedule: Q04DX003 (ip), vehicle: saline 97 % of control | dose: 200.0 mg/kg/injection, schedule: Q04DX003 (ip), vehicle: saline 104 % of control | dose: 400.0 mg/kg/injection, schedule: Q04DX003 (ip), vehicle: saline 97 % of control

Cn1ccn(C2CCCCC2)c1=O
inactive: dose: 25.0 mg/kg/injection, schedule: Q01DX009 (ip), vehicle: saline with Tween-80 98 % of control | dose: 25.0 mg/kg/injection, schedule: Q04DX003 (ip), vehicle: saline with Tween-80 96 % of control | [6] 101 % of control | [7] 100 % of control | [8] 95 % of control | [9] 91 % of control and 93 % of control
